The source of these data is ChEMBL document CHEMBL1137272, “Discovery and synthesis of tetrahydroindolone derived semicarbazones as selective Kv1.5 blockers” (Bioorg Med Chem Lett, 2006).

Calls of active or inactive are those of the source. The calls are words filed in the database; no cut-off is given here.

For assay [1], the target named is T1, Potassium voltage-gated channel subfamily A member 5 (Homo sapiens, UniProt P22460). The assay can be described thus: Inhibition of Kv1.5 expressed in LTK- cells by whole cell patch clamp assay at 1uM. Type of assay: functional, cell-based.
T1 sequence (P22460 whole entry): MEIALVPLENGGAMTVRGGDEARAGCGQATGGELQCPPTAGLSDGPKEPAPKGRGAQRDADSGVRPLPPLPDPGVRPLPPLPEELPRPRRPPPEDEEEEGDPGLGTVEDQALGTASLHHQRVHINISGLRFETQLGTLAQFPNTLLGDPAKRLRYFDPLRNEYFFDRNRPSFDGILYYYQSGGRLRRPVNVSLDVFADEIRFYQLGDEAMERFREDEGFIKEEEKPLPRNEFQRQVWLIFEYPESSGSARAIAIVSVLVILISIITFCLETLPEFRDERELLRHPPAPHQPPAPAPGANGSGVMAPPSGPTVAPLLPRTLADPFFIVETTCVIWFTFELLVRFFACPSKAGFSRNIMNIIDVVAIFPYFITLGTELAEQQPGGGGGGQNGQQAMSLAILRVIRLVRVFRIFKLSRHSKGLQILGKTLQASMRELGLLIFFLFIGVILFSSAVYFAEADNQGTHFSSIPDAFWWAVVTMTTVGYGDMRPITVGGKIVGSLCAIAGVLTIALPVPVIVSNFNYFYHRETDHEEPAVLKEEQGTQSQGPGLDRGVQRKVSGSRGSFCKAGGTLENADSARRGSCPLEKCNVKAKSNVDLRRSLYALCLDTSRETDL
For assay [2], the target named is T1, Potassium voltage-gated channel subfamily A member 5. The assay can be described thus: Inhibition of Kv1.5 expressed in LTK- cells by whole cell patch clamp assay. Type of assay: functional, cell-based.
Assay [3] deals with Sus scrofa. The assay can be described thus: Prolonged right atrial refractory period in pigs after 15 minute iv infusion at 30mg/kg. Type of assay: functional, Cardiac atrium.
In assay [4] the test system is Sus scrofa. The assay can be described thus: Prolonged ventricular refractory period in pigs after 15 minute iv infusion at 30mg/kg. Type of assay: functional, organism-based. Conditions: Cardiac ventricle.
Assay [5] deals with Sus scrofa. The assay can be described thus: Prolonged right atrial refractory period in pigs after 15 minute iv infusion at 10mg/kg. Type of assay: functional, Cardiac atrium.
The target of assay [6] is Voltage-gated L-type calcium channel (Homo sapiens, UniProt Q13936+Q13698+Q01668+O60840). The assay can be described thus: Inhibition of L-type calcium channel by FLIPR assay. Type of assay: functional.
Assay [7] deals with Sus scrofa. The assay can be described thus: Prolonged ventricular refractory period in pigs after 15 minute iv infusion at 10mg/kg. Type of assay: functional, organism-based. Conditions: Cardiac ventricle.

By inhibition is commonly meant the percentage by which the read-out fell short of the control. `CCc1c(C)[nH]c2c1/C(=N/N(C)C(=O)Nc1ccc(SC)cc1)CCC2` showed an inhibition in assay [1] of 78%.

As a reminder, the IC50 is the concentration needed to halve the response being measured. With `CCc1c2c(n(C)c1CC)CCC/C2=N\N(C)C(=O)Nc1ccc(C(C)=O)cc1`, the inhibition in assay [1] is 90%. The IC50 in assay [2] amounted to 370 nM. Molecule `CCc1c(C)[nH]c2c1/C(=N/N(C)C(=O)Nc1ccc(C(C)=O)cc1)CCC2` had an inhibition in assay [1] of 86%. Still for that read-out and setting: the same measure for `Cc1[nH]c2c(c1C(C)C)/C(=N/NC(=O)Nc1ccccc1)CCC2`: “inactive”. In turn, `CCc1c(C)[nH]c2c1/C(=N/N(C)C(=O)Nc1ccc(Cl)cc1)CCC2` gave an inhibition in assay [1] of 93%. The “Prolonged ARP” value in the assay with Sus scrofa [3] is 18%. For the same molecule, in the assay on Sus scrofa [4], the “Prolonged VRP” value was “inactive”. This molecule also came in with an IC50 in assay [2] of 130 nM. The molecule `CCc1c(C)[nH]c2c1/C(=N/NC(=O)Nc1cccc(C3CCCN3)c1)CCC2` (stereo not given) showed an inhibition in assay [1] of 60%. The same molecule returned a 50% inhibitory concentration (IC50) in assay [2] of 750 nM. `CCc1c2c(n(C)c1CC)CCC/C2=N\N(C)C(=O)Nc1ccccc1` showed an inhibition in assay [1] of 84%.

In assay [1], `Cc1[nH]c2c(c1C)/C(=N/NC(=O)Nc1ccc(C(F)(F)F)cc1)CCC2` gave an inhibition of 63%. `CCc1c(C)[nH]c2c1/C(=N/NC(=O)Nc1ccc(SC)cc1)CCC2`: in assay [1], the inhibition turned out to be 80%. The same molecule had a half-maximal inhibitory concentration (IC50) in assay [2] of 280 nM. Turning to `O=C(N/N=C1\CCCc2[nH]ccc21)Nc1ccccc1`, the inhibition entry in assay [1] is “inactive”. The molecule `Cc1[nH]c2c(c1C)/C(=N/NC(=O)Nc1ccc(Cl)cc1)CCC2` had an inhibition in assay [1] of 67%. This molecule also showed an IC50 in assay [2] of 370 nM. `Cc1[nH]c2c(c1C(C)C)/C(=N/NC(=O)Nc1ccc(Cl)cc1)CCC2`: in assay [1], the inhibition result is “inactive”.

With `CCc1c(C)[nH]c2c1/C(=N/NC(=S)Nc1ccc(C(F)(F)F)cc1)CCC2`, the inhibition in assay [1] stood at 52%.

`CCc1c(C)[nH]c2c1/C(=N/NC(=S)Nc1cccc(C)c1)CCC2` returned an inhibition in assay [1] of 64%.

Regarding `CCc1c2c(n(C)c1CC)CCC/C2=N\N(C)C(=O)Nc1ccc(Cl)cc1`, in assay [1], the inhibition is 90%. Turning to `CCc1c(C)[nH]c2c1/C(=N/NC(=S)Nc1cccc(C(F)(F)F)c1)CCC2`, the inhibition in assay [1] came out at 91%. Besides, the IC50 in assay [2] was 200 nM. On to `CCc1[nH]c2c(c1CC)/C(=N/NC(=O)Nc1ccc(SC)cc1)CCC2`, for which the inhibition in assay [1] stood at 56%. In the case of `CCc1[nH]c2c(c1CC)/C(=N/NC(=O)Nc1ccccc1)CCC2`, the inhibition in assay [1] turned out to be 56%.

Molecule `Cc1[nH]c2c(c1C)/C(=N/NC(=O)Nc1ccccc1)CCC2` had an inhibition in assay [1] of 37%. On the same count and under the same terms, the figure for `CCc1[nH]c2c(c1CC)/C(=N/NC(=O)Nc1ccc(Cl)cc1)CCC2` is 60%. In assay [1], `O=C(N/N=C1\CCCc2[nH]ccc21)Nc1ccc(Cl)cc1` registered an inhibition of 28%. In assay [2], this molecule returned an IC50 of 5600 nM. In assay [1], `CCc1c(C)[nH]c2c1/C(=N/N(C)C(=O)Nc1ccccc1)CCC2` yielded an inhibition of 65%. On to `CCc1c(C)[nH]c2c1/C(=N/NC(=O)Nc1ccc(C)cc1)CCC2`, for which the inhibition in assay [1] is 50%. The molecule `CCc1[nH]c2c(c1CC)/C(=N/NC(=O)Nc1cccc(SC)c1)CCC2` gave an inhibition in assay [1] of 67%. `CCc1c(C)[nH]c2c1/C(=N/N(C)C(=O)Nc1cccc(Cl)c1)CCC2` registered an inhibition in assay [1] of 89%. On the same count and under the same terms, the same measure for `CCc1c(C)[nH]c2c1/C(=N/NC(=S)Nc1ccc(Cl)cc1)CCC2`: 71%.

Take `CCc1c(C)[nH]c2c1/C(=N/NC(=O)Nc1ccc(Cl)cc1)CCC2`: the inhibition in assay [1] stood at 65%. In addition, half-maximal inhibition in assay [2] (IC50) was put at 440 nM. In the case of `O=C(N/N=C1\CCCC2=C1C1CCCCC1N2)Nc1ccccc1` (stereo not given), the inhibition in assay [1] is 20%. `CCc1c(C)[nH]c2c1/C(=N/NC(=S)Nc1cccc(Cl)c1)CCC2` showed an inhibition in assay [1] of 78%. On to `CCc1[nH]c2c(c1CC)/C(=N/NC(=O)Nc1ccc(OC)cc1)CCC2`, for which, in assay [1], the inhibition stood at 85%. Regarding `CCc1c(C)[nH]c2c1/C(=N/NC(=O)Nc1ccccc1)CCC2`, in the assay with Sus scrofa [5], the “Prolonged ARP” value is 28%. In assay [1], this molecule showed an inhibition of 85%. Moreover, the IC50 in assay [6] is more than 30 µM; in assay [2], 130 nM. Also, the “Prolonged VRP” value in the assay with Sus scrofa [7] is “inactive”.
